Assay results taken from ChEMBL document CHEMBL1201862, “PubChem BioAssay data set” (2004).
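The compound was tested at five concentrations on cells cultured in 96-well plates, with a 48-hour exposure period. GI50 = concentration required for 50% inhibition of growth.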 Active and inactive are the calls of the source. No stated cut-off is given here; in the data, active = GI50 up to about 1.1 µM and inactive = higher.

What was measured:
Test in all cases: NCI-60 cell line screen, 48 h
[1] = test system: SNB-75
[2] = test system: OVCAR-5
[3] = test system: IGROV-1
[4] = test system: UO-31
[5] = test system: SW-620
[6] = test system: COLO 205
[7] = test system: TK-10
[8] = test system: MDA-MB-231
[9] = test system: DU-145
[10] = test system: OVCAR-8
[11] = test system: U-251
[12] = test system: NCI-H460
[13] = test system: PC-3
[14] = test system: A498
[15] = test system: SR
[16] = test system: MCF7
[17] = test system: 786-0
[18] = test system: RXF 393
[19] = test system: HOP-62
[20] = test system: KM12
[21] = test system: OVCAR-4
[22] = test system: HCC 2998
[23] = test system: EKVX
[24] = test system: UACC-62
[25] = test system: SK-MEL-5
[26] = test system: CAKI-1
[27] = test system: SF-268
[28] = test system: NCI-H226
[29] = test system: SF-539
[30] = test system: UACC-257
[31] = test system: A549
[32] = test system: OVCAR-3
[33] = test system: HCT-116
[34] = test system: HOP-92
[35] = test system: K562
[36] = test system: MDA-MB-435
[37] = test system: RPMI-8226
[38] = test system: NCI-H23
[39] = test system: M14
[40] = test system: HCT-15
[41] = test system: ACHN
[42] = test system: T47D
[43] = test system: BT-549
[44] = test system: SK-MEL-28
[45] = test system: MDA-N
[46] = test system: SN12C
[47] = test system: SNB-19
[48] = test system: NCI/ADR-RES
[49] = test system: SK-MEL-2
[50] = test system: SF-295
[51] = test system: HT-29
[52] = test system: MOLT-4
[53] = test system: SK-OV-3
[54] = test system: Malme-3M
[55] = test system: Hs-578T
[56] = test system: CCRF-CEM
[57] = test system: NCI-H522
[58] = test system: LOX IMVI
[59] = test system: HL-60

Measured: GI50

C=C(C(=O)OC)[C@H]1CC/C(C)=C/CC[C@@](C)(O)C=CC[C@@]2(C)O[C@@H]2C1
24.2 µM: [40]
active: [25] 1.04 µM
inactive: [1] > 100 µM | [2] > 100 µM | [3] 46.6 µM | [4] 21.4 µM | [5] 28.1 µM | [6] 13.6 µM | [7] 40.6 µM | [8] 56.9 µM | [9] 22.9 µM | [10] 13.9 µM | [11] 40.4 µM | [12] > 100 µM | [13] 44.4 µM | [14] 20.7 µM | [15] 9.93 µM | [16] 40.8 µM | [17] 17.6 µM | [18] 32.4 µM | [19] 44.3 µM | [20] 37.6 µM | [21] 64.6 µM | [22] 42.1 µM | [23] 20.8 µM | [24] 31.9 µM | [26] 24.1 µM | [27] 19.6 µM | [28] > 100 µM | [29] 21.5 µM | [30] 27.5 µM | [31] 81.3 µM | [32] 17.7 µM | [33] 18.8 µM | [34] 19.1 µM | [35] > 10 µM | [36] 17.3 µM | [37] 16.1 µM | [38] 24.1 µM | [39] 62.8 µM | [41] 36.3 µM | [42] 37.3 µM | [43] 76.2 µM | [44] 10.9 µM | [45] 49.4 µM | [46] 47.4 µM | [47] > 100 µM | [48] 14.3 µM | [49] 97.1 µM | [50] > 100 µM | [51] 15.2 µM | [52] 12.7 µM | [53] > 100 µM

COc1cc(C2=C(c3cc(OC)c4ccccc4c3OC)C(=O)c3ccccc3C2=O)c(OC)c2ccccc12
> 100 µM: [40]
inactive: [1] > 100 µM | [2] 75.9 µM | [3] > 100 µM | [4] > 100 µM | [5] > 100 µM | [6] > 100 µM | [7] > 100 µM | [9] > 100 µM | [10] > 100 µM | [11] > 100 µM | [12] > 100 µM | [13] > 100 µM | [14] > 100 µM | [15] > 100 µM | [54] 62.5 µM | [55] > 100 µM | [16] > 100 µM | [17] > 100 µM | [18] > 100 µM | [19] > 100 µM | [20] > 100 µM | [21] 1.14 µM | [23] > 100 µM | [24] > 100 µM | [25] > 100 µM | [26] > 100 µM | [56] > 100 µM | [27] > 100 µM | [57] > 100 µM | [28] 59.6 µM | [29] > 100 µM | [30] > 100 µM | [31] > 100 µM | [32] > 100 µM | [33] > 100 µM | [34] > 100 µM | [36] > 100 µM | [38] > 100 µM | [58] > 100 µM | [39] 82.4 µM | [59] 10.2 µM | [41] > 100 µM | [42] > 100 µM | [43] > 100 µM | [44] > 100 µM | [45] > 100 µM | [46] > 100 µM | [47] > 100 µM | [48] > 100 µM | [49] > 100 µM | [50] > 100 µM | [51] > 100 µM | [52] > 100 µM | [53] > 100 µM
